The subject of data set [1] is corticosterone injured PC12 cells. The data set is described as follows: Intracellular ROS level (DCF-DA). Format: cell-based, rat. The note with it: 200 μM corticosterone and 5 μM drug; vehicle-treated PC12 cells = 100%.
Description: In brief, PC12 cells were washed with D-Hanks after drug treatment. Then cells were incubated with 2′, 7′-dichloro-fluorescein diacetate (DCF-DA, 20 μM) for 30 min at 37 °C in darkness.
The subject of data set [2] is corticosterone-injured PC12 cells. The data set is described as follows: Intracellular calcium ion concentration analysis (Fura-2 AM). Format: cell-based, rat. The note with it: 200 µM corticosterone and 5 µM drug. The method, then: The detailed procedures were performed according to the reported literatures. In brief, calcium ion concentration was measured by Fura-2 AM (Thermo Scientific). PC12 cells were treated with compound 6a-1 for 48 hours. Then cells were detached with 0.25% trypsin and centrifuged at 1000 r/min for 5 minutes. The supernatant was removed and the cells were stained with Fura-2 AM according to the manufacturer’s instructions. Fluorescence intensity of labeled cells was photographed for 25 random sights each group using Thermo Scientific Array Scan Infinity.
A general note: Calcium flux is commonly read through the fluorescence of an indicator in the cells.

In another data set the test system is C57 mice. The data set is described as follows: Acute toxicity evaluation with H&E histology. Format: in vivo, mouse. The method, then: Ten mice of each group were sacrificed on the 7th day, their heart, liver, spleen, lung and kidney were harvested and H&E histological staining was performed. Then the stained tissues were observed by two pathologists in a blinded manner.

Data set [3] has as its system corticosterone injured PC12 cells. The data set is described as follows: Intracellular GSH level. Format: cell-based, rat. The note with it: 200 μM corticosterone and 5 μM drug; vehicle-treated PC12 cells = 100%.
Data set [4] has the same test system. The data set is described as follows: Real-time PCR BDNF mRNA level. Format: cell-based, rat. The note with it: 200 µM corticosterone and 5 µM drug. Background: Quantitative PCR measures a nucleic acid by following its amplification.
Data set [5] has as its system corticosterone-injured PC12 cells. The data set is described as follows: Protective effects on corticosterone-injured PC12 cells (MTT). Format: cell-based, rat. The note with it: 24 h after treatment; for PR (protection rate): 200 μM corticosterone. The method in brief: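 PC12 cells seeded at 1 × 10^5 per well and grown 24 h in DMEM with 5% horse serum and 10% FBS, then incubated with compounds. Viability by MTT (2–4 h, 37 °C), formazan dissolved in DMSO, absorbance at 570 nm; protective rate calculated from absorbance.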

Data set [6] concerns SD rats. The data set is described as follows: Forced swim test. Format: in vivo, rat. The note with it: ig. 32 mg/kg/day, days 2–15. The protocol:
The detailed procedures were performed according to our previous studies. Briefly, each SD rat was placed in a vertical Plexiglas cylinder (height 50 cm; diameter 20 cm) containing 18 cm height of water at 25 ± 2 °C and was forced to swim individually for 15 min on1st day. From 2nd day to 15th day, the rats were intragastrically administered compound 6a-1 or control drugs at dosage of 32 mg/kg/day. On the 2nd day and 15th day, 30 minutes after drug treatment, each rat was placed again into water and forced to swim for 6 min. The rat behavior was recorded by a video camera placed directly facing cylinders. The duration of immobility during the last 4 minutes was analyzed by Xeye Animal behavior analysis system (Xeye Aba V3.2). The rat was considered as immobile when its moving speed was less than 20 mm/s. The dosage of is 32 mg/kg every day. The water in the cylinder was changed each trial. After each exposure, animals were partially dried with a towel and returned to their home cages. All tests were performed in a quiet room.

For data set [7], the system named is SD rats. The data set is described as follows: Open field locomotor activity. Format: in vivo, rat. The note with it: ig. 32 mg/kg/day, days 2–15, vs untreated rats. The method, then:
The detailed procedures were performed according to our previous studies. In brief, each SD rat was placed at the center of the open field (50 × 50 cm^2 chamber, 50-cm-high walls, with a 25 cm^2 area in the middle of floor defined as the central square) for 6 min in a quiet room. The animals were gently placed in the center of the platform and were allowed to explore the surroundings. A camera was installed above the center of the field. Immediately after a rat was placed at the center in the open field, the movements and position of the animals were recorded and registered automatically by computerized system. Next test was performed after cleaning the chamber. The traveled tracks of rats were recorded for 6 minutes and the videos of the last 4 minutes were analyzed also by Xeye Animal behavior analysis system.

The subject of a further data set is H9C2 cells. The data set is described as follows: Cytotoxicity on H9C2 cells (MTT). Format: cell-based. The note with it: Rattus norvegicus, 48 h. The method, then:
Human normal hepatic L02 cells, human embryonic kidney cell line 293 cells (HEK293) and Rattus myoblast cell line H9C2 cells were respectively seeded in 96-well plates at a density of 4 × 10^3 cells per well and cultured in the 1640 or DMEM medium, with the supplement of 10% fetal bovine serum, penicillin (100 unit/ml), streptomycin (100 μg/ml) in a humidified incubator with 5% CO2 for 24 h. After adherence, L02, HEK293 and H9C2 cells were exposed to different compounds for another 48 h. The cytotoxicities of the compounds were evaluated by MTT method.

A further data set relates to rat hippocampus. The data set is described as follows: Cell survival, proliferation and maturation in the rat hippocampus. Format: in vivo. The note with it: rats, 21 days. The protocol: The detailed procedures were performed according to the reported literatures.
Wistar rats were used herein. Agomelatine were purchased from Dalian Meilun Biotech Company. […] For cell proliferation study, BrdU (200 mg/kg i.p.) was administered 2 h before perfusion. For cell maturation and survival studies, animals received five injections of BrdU (75 mg/kg, 2 h intervals) the first day of treatment and were killed 21 days later. […] was randomly selected 8 visual fields for statistical analysis.

The nature of data set [8]: PAMPA-BBB permeation assay. Format: in vitro ADME. The note with it: for Papp at 18 h, 100 μg/mL: Pe ± SD (n = 3), pH 7.4. On the technique in general: In PAMPA a lipid-coated filter parts donor from acceptor wells.
Description: Parallel artificial membrane permeation assay (PAMPA) was performed according to the literature[44] with minor modification. The PVDF (Poly(vinylidene fluoride)) membrane of the donor plate was coated with PBL (Polar Brain Lipid, Avanti, USA) in dodecane (4 μL of 20 mg/mL PBL in dodecane) and the acceptor well was filled with 350 μL of PBS/EtOH (70/30, v/v, pH 7.4) buffer (VD). The tested compound was dissolved in DMSO and then diluted with PBS/EtOH (70/30, v/v, pH 7.4) buffer to reach the concentration of 100 μg/mL in the donor well.
200 μL of the donor solution was added to the donor wells (VA) and the donor filter plate was carefully put on the acceptor plate so that the coated membrane contacted both donor solution and acceptor buffer. Test compound diffused from the donor well through the lipid membrane (area = 0.28 cm^2) to the acceptor well. The concentration of the drug in both donor and the acceptor wells was assessed after 18 hours of incubation at room temperature in triplicate using Varioskan Flash Multimode Reader (Thermo Scientific) at the maximum absorption wavelength of tested compound. Concentration of the compound was calculated from the standard curve and expressed as the permeability (Pe) according to Equation (2):
A further data set deals with HEK293 cells. The data set is described as follows: Cytotoxicity on HEK293 cells (MTT). Format: cell-based, human. The note with it: Homo sapiens, HEK293, 100μM, after treatment; read-out: IR (inhibitory rate) HEK293. The method, boiled down:
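HEK293 human embryonic kidney cells were plated in 96-well plates at 4 × 10^3 cells per well and grown in 1640 or DMEM medium containing 10% fetal bovine serum, penicillin (100 unit/ml) and streptomycin (100 μg/ml) for 24 h at 5% CO2 in a humidified incubator. Compound cytotoxicity was then determined using the MTT method.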

Take `COc1ccc2cccc(CCNC(C)=O)c2c1` [Agomelatine, reference compound]: in data set [1], the ROS level was determined as 125.0%. The “fluorescence intensity of free intracellular calcium ion” value in data set [2] is “weaker fluorescence intensity than corticosterone-injured PC12 cells”. In the data set on C57 mice (140 mg/kg/day, 7th day), the “heart histology (H&E)” value is “no necrosis, hemorrhage or inflammatory exudates were observed”; the “liver histology (H&E)” value was “severely damaged”; the “spleen histology (H&E)” value is reported as “unchanged”. In data set [3], this compound gave a GSH level of 93.4%. Moreover, the “BDNF mRNA level increase compared with corticosterone-injured group” value in data set [4] came to 37.2%. Besides, the “PR (protection rate), Table S1” value in data set [5] (1.25µM) was 28.1%. The “PR (protection rate)” value in data set [5] (1.25 μM) is 28.1%. Also, the “PR (protection rate)” value in [5] (5 μM) worked out at 17.6%. Moreover, the “PR (protection rate)” value in data set [5] ([…]) was 24.2%. In addition, the “mean immobility time reduced compared to the model group” value with SD rats [6] is 8.4%. In addition, in the data set on SD rats [7], the improved travelled distance was determined as 91.2%. The compound further had an IC50 in the data set on H9C2 cells of 375 µM. Besides, in the data set on rat hippocampus (i.p. 40 mg/kg), the “expression of PSA-NCAM compared with vehicle-treated group” value was “reduced the expression of PSA-NCAM”. For the same compound, in data set [8], the “CNS(+/−) prediction of blood-brain barrier penetration” value is “CNS+” and the Papp at 18 h, 100 μg/mL was found to be 17.8 ± 0.37 ×10⁻⁶ cm/s. Further, in the data set with HEK293 cells, the inhibition at 100 µM came to 47.5%.

`COc1ccc2c(c1)C(CCNC(C)=O)=NCC2.O=C(O)C(=O)O` [6a-1, N-(2-(7-Methoxy-3,4-dihydroisoquinolin-1-yl)ethyl) acetamide oxalate] displayed an ROS level in data set [1] of 140.3%. For the same compound, the “fluorescence intensity of free intracellular calcium ion” value in data set [2] is “much weaker fluorescence intensity than Fluoxetine and Agomelatine”. Further, in the data set with C57 mice (140 mg/kg/day, 7th day), the “heart histology (H&E)” value was “cardiac myocytes were fragmented and arranged promiscuously”; the “kidney histology (H&E)” value is “did not show any significant difference compared with normal”; the “liver histology (H&E)” value is reported as “hepatic cords were distinctly clear”; the “lung histology (H&E)” value is “did not show any significant difference compared with normal”. The “spleen histology (H&E)” value with C57 mice (140 mg/kg/day, 7th day) is “unchanged”. Also, in the data set on C57 mice (intragastric 140 mg/kg/day, 7-day administration), the “clinical signs of toxicity” value is recorded as “No visible clinical signs of toxicity”. The compound further came in with a GSH level in data set [3] of 87.7%. In [4], the “BDNF mRNA level increase compared with corticosterone-injured group” value turned out to be 42.8%. Moreover, the “PR (protection rate)” value in data set [5] (5 μM) was 42.1%. In addition, in data set [5] ([…]), the “PR (protection rate)” value is on record as 37.1%. Moreover, in the data set with SD rats [6], the “mean immobility time reduced compared to the model group” value was 62.5%. Moreover, the improved travelled distance with SD rats [7] amounted to 131.2%. Moreover, the IC50 in the data set on H9C2 cells turned out to be 455 µM. In the data set with rat hippocampus (i.p. 40 mg/kg once daily), the “number of BrdU-labeled neuron cells (proliferation)” value was “remarkably increased” and the “number of BrdU-labeled neuron cells (survival)” value is “remarkably increased”. In the data set on rat hippocampus (i.p. 40 mg/kg), the “expression of PSA-NCAM compared with vehicle-treated group” value is listed as “reduced the expression of PSA-NCAM”, the “number of NeuN cells compared with vehicle-treated group” value is given as “significant (P < 0.001) increase” and the “number of PSA-NCAM-labeled cells relative to Agomelatine group” value is on record as “approximately three-fold decrease”. Besides, in [8], the “CNS(+/−) prediction of blood-brain barrier penetration” value is listed as “CNS+” and the Papp at 18 h, 100 μg/mL came out at 16.7 ± 0.41 ×10⁻⁶ cm/s. The inhibition at 100 µM with HEK293 cells was < 20%.

The term IC50 denotes the concentration needed to halve the response being measured. The Papp is the rate of passage across a membrane or cell layer, normalised by area and donor concentration.

Values taken from article PMC5048153 (Scientific Reports, 2016).
